Patent USRE50977E1, “Methods for production of platelets from pluripotent stem cells and compositions thereof” (Astellas Institute for Regenerative Medicine, priority 2012, dated 2026)

How the values were obtained:
[1] = tested on: iPS derived megakaryocytes; assay: Platelet formation in static culture with MMP inhibitors; assay type: cell-based, human; details: for protection of platelets (CD42b shedding) compared with GM6001: comparative study of specific MMP inhibitors
Method: The peak of platelet production is determined by measuring platelet content in the culture, for example on a daily basis for several days. It is typically 4-7 days after the beginning of the MLP differentiation culture period, although it may be longer or it may be shifted. To induce MK maturation and platelet formation, freshly collected or thawed MKPs were cultured in MK maturation medium (MK-M) containing […]+TPO, SCF, IL-6 and […] Megakaryocyte Expansion Supplement) and heparin (5 U/ml) in ultralow attachment plates (Corning). 5 μM of Y-27632 was added for the first 3 days of culture, and cells were incubated in 7% CO2 at 39° C. Cell morphology and density were monitored daily and fresh medium was added to maintain 10^6 cells/ml for the first 4 days. The maturation of MKs from MKPs was monitored using flow cytometric analysis of CD41a, CD42b, and CD235a. Once pro-platelet morphology was observed, medium samples were taken daily to determine platelet yield using CD41a/CD42b double staining by flow cytometric analysis. Platelets were collected for 3-5 consecutive days during the peak of production. To extract platelets, large MKs were removed first using low speed centrifugation (50×g for 10 min), and proplatelets and small MKs were removed by further 10 min centrifugation at 300×g. The iPS-platelets in the supernatants were collected using higher g force (1000-2500×g) in the presence of PGE1 (1 μM). The collected iPS-platelet pellets were then subjected to further purification using a BSA gradient centrifugation as described previously (Robert et al., 2012). Briefly, iPS-platelet pellets were re-suspended with 1× CGS buffer. Platelets were applied in the buffer on top of a BSA gradient with BSA concentration of (weight/volume) of 12, 10, 7, 5 and 2%. The sample was centrifuged at 82×g for 15 min with no break, then the platelet-rich fraction was collected. iPS-platelets purified from BSA gradient were stored or transported at room temperature in MK-M for further analyses.

[2] = tested on: MKs derived from HA-iPS; assay: Platelet generation under constant shear force in microfluidic device, HA-iPS derived MKs; assay type: cell-based, human
Method: Matured MKs, derived from HA-iPS and MA09 hES lines, were used. Equal numbers of MKs suspended in MK-specific medium were loaded into a microfluidic device in the presence or absence of 20 μM MMP inhibitor GM6001. Constant shear force was applied to the MKs throughout the culture period. MK-medium downstream of MKs was collected at 30 minute intervals for a period of 6 hours. Platelet number and purity (i.e., percentage of total cells that are CD41a^+CD42b^+) in the collected media were measured using flow cytometer.

[3] = tested on: human and murine MLL-fusion leukemic cell lines; details: induction of early cell cycle arrest and apoptosis; cited from earlier work
[4] = tested on: cells undergoing in vitro megakaryopoiesis; assay: iBET151 treatment of MKP Day 6+3 cultures; assay type: cell-based, human; details: for increase of MKP outputs vs untreated controls: 24 hours; for CD14+ myeloid cells: D6+3 to D6+4, control about 12%; for number/formation of CD14+ myeloid cells: 0.1 and 0.25 μM
Method: To promote early MK progenitor production, cells were cultured in MK-Specific Progenitor Expansion medium (EXP-M) containing STEMdiff APEL Medium+TPO (25 ng/ml), SCF (25 ng/ml), Flt-3 ligand (25 ng/ml), IL-3 (10 ng/ml), IL-6 (10 ng/ml) and heparin (5 U/ml) for up to 7 days. Non-adherent MK Progenitors (MKPs) were constantly released into the medium and harvested for 4-5 consecutive days in EXP-M. Daily harvests were cryo-preserved in animal protein-free defined cryopreservation CryoStor™ medium. Samples of MKPs were also subjected to flow cytometry for analysis of CD41a, CD42b, CD31, CD34, CD43, CD13, CD235a, and CD14 cell surface expression.
(§1) As also described above in Example 10, we therefore determined whether suppression of c-myc expression would enhance MK lineage differentiation/expansion and simultaneously prohibit myeloid and other lineage differentiation/expansion. MKP Day 6+3 cultures were treated with non-cytotoxic doses of a c-myc inhibitor, iBET151 (0.1 and 0.25 μM) for 24 hours and then harvested for analysis. […] CD14+ myeloid cells were decreased from about 12% in control cultures to less than 5% and 3% in cultures treated with iBET151 at 0.1 and 0.25 μM, respectively.

[5] = tested on: c-myc gene expression; assay: Q-PCR of MYC in MKPs treated with iBET151; assay type: cell-based, human; details: 0.1 and 0.25 μM
Method: as §1

[6] = tested on: GATA1 gene expression; assay: Q-PCR of GATA1 in MKPs treated with iBET151; assay type: cell-based, human; details: 0.1 and 0.25 μM
Method: as §1

[7] = constant shear force, 20 μM added at beginning of culture, vs DMSO

Structure (SMILES): COc1ccc(S(=O)(=O)N2Cc3ccccc3C[C@@H]2C(=O)NO)cc1 [MMP8-I, (3R)-(+)-[2-(4-Methoxybenzenesulfonyl)-1,2,3,4-tetrahydroisoquinoline-3-hydroxamate]]
- total number of CD41a+CD42b+ platelets, increase vs control ([1]; MK culture): ~ 46%
- protection of platelets (CD42b shedding) compared with GM6001 [1]: superior shedding protection than GM
- protection of platelets (CD42b shedding) compared with GM6001 ([1]; listed as MMP8 inhibitor): more potency than GM6001
- CD41a+CD42b+ platelets produced as compared to GM6001 ([1]; static culture): Significantly more
- purity gain over GM6001-treated cultures ([1]; static culture): approximately 10%
- purity of iPS-derived platelets ([1]; static culture, added at the peak of platelet production, control 43.7%): 65.5%

Structure (SMILES): CNC(=O)[C@H](Cc1c[nH]c2ccccc12)NC(=O)[C@@H](CC(=O)NO)CC(C)C [GM6001]
- platelet purity (percentage CD41a+CD42b+) [2, 7]: significantly improved
- platelet yield [2, 7]: significantly improved
- platelet numbers as a function of time ([2]; shear force culture, FIG. 23): significantly more platelets were generated
- CD41b+/CD42b+ platelets ([1]; added in MK culture, control 45%): 59%

Structure (SMILES): COc1cc2c(cc1-c1c(C)noc1C)ncc1[nH]c(=O)n([C@H](C)c3ccccn3)c12 [iBET151]
- efficacy against leukemic cell lines [3]: profound efficacy
- increase of MKP outputs vs untreated controls ([4]; 0.1 μM): ≈ 2 fold
- CD14+ myeloid cells ([4]; 0.1 μM): less than 5%
- increase of MKP outputs vs untreated controls ([4]; 0.25 μM): ~4 fold
- CD14+ myeloid cells ([4]; 0.25 μM): < 3%
- number/formation of CD14+ myeloid cells [4]: inhibited
- number/formation of CD14+ myeloid cells ([4]; listed as i-BET-151): dose-dependent decrease
- apoptosis ([4]; high dose): massive apoptosis
- numbers of MK progenitors ([4]; lower doses, micromolar or submicromolar range): increased numbers of MK progenitors
- c-myc (MYC) mRNA expression [5]: dose-dependent downregulation
- c-myc (MYC) mRNA expression ([5]; listed as i-BET-151): dose-dependent inhibition
- GATA1 mRNA expression [6]: up-regulation
- GATA1 mRNA expression ([6]; listed as i-BET-151): up-regulated
